Test results published in paper PMC10970734, “Identification of an Intravenous Injectable NK1 Receptor Antagonist for Use in Traumatic Brain Injury” (International Journal of Molecular Sciences, 2024).

How the values were obtained:
[1] = target: T1, recombinant human NK3 receptor (Homo sapiens, UniProt P29371); assay: Radioligand binding, recombinant human NK3 receptor
T1 sequence (P29371 1-465): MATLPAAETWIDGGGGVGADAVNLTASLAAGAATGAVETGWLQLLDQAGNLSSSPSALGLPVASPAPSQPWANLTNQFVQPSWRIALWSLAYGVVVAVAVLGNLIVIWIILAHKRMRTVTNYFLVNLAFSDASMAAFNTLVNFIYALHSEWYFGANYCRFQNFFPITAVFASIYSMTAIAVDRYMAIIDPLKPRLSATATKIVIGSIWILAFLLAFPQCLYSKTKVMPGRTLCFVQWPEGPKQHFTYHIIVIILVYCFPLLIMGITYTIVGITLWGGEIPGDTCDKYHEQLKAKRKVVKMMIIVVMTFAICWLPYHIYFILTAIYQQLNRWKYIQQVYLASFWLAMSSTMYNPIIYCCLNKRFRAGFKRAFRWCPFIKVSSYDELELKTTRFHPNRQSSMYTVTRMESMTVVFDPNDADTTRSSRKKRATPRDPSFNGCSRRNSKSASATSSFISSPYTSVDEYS

[2] = target: T2, Adenosine A3 (Homo sapiens, UniProt P0DMS8); assay: Cerep selectivity profiling, receptor antagonism; type: biochemical
T2 sequence (P0DMS8 1-318): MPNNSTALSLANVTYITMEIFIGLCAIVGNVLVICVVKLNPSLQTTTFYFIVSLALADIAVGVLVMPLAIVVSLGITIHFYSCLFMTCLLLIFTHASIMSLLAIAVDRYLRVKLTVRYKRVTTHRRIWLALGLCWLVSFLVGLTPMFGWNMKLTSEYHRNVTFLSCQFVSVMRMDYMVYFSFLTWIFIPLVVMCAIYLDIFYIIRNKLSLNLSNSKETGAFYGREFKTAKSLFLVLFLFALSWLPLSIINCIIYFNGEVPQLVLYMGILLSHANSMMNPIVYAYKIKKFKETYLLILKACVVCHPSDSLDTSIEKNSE
Description: (§1) The pharmacological specificity of EUC-001 was assessed using the commercially available selectivity profiling services provided by Cerep (Celle l’Evescault, France). Initially, the activity of EUC-001, at a fixed concentration of 10 μM, was evaluated in a range of assays to assess pharmacological selectivity relative to other cell-surface receptors, ion channels and transport proteins. Where any significant binding was detected, further assays were performed to quantify potential non-selective activity. […] In terms of this non-specific activity, the IC50s are approximately 3.6 log units greater than that required for NK1R antagonism.
(§2) The pharmacological specificity of EUC-001 was assessed using the commercially available selectivity profiling services provided by Cerep (Celle l’Evescault, France). For initial screens, the binding of EUC-001 (synthesized by Hoffmann-La Roche, Basel, Switzerland) at a fixed concentration of 10 μM was evaluated in a range of assays to assess pharmacological selectivity relative to other cell-surface receptors, ion channels and transport proteins.
(§3) For agonist activity, results are expressed as a percentage of the control agonist response induced by the selective NK1R agonist [Sar^9, Met(O2)^11]-substance P (100 nM) for a range of concentrations of EUC-001. Antagonist activity is expressed as a percentage change in the response induced by 3 nM [Sar^9, Met(O2)^11]-SP (R&D systems) across a range of concentrations of EUC-001. The EC50 values (concentration producing a half-maximal specific response) and IC50 values (concentration causing a half-maximal inhibition of the control specific agonist response) were determined by non-linear regression analysis of the concentration–response curves generated with mean replicate values using Hill equation curve fitting (Y = D + [(A − D)/(1 + (C/C50)nH)], where Y = specific response, D = minimum specific response, A = maximum specific response, C = compound concentration, and C50 = EC50 or IC50, and nH = slope factor). This analysis was performed using custom software developed at Cerep and validated by comparison with data generated by the commercial software SigmaPlot® 4.0 for Windows® (SPSS Inc., Chicago, IL, USA). For the antagonists, the apparent dissociation constants (KB) were calculated using the modified Cheng Prusoff equation (KB = IC50/(1 + (A/EC50A)), where A = concentration of reference agonist in the assay, and EC50A = EC50 value of the reference agonist).

[3] = target: T3, Muscarinic cholinergic M2 (Homo sapiens, UniProt P08172); assay: Cerep selectivity profiling, receptor antagonism; type: biochemical
T3 sequence (P08172 1-466): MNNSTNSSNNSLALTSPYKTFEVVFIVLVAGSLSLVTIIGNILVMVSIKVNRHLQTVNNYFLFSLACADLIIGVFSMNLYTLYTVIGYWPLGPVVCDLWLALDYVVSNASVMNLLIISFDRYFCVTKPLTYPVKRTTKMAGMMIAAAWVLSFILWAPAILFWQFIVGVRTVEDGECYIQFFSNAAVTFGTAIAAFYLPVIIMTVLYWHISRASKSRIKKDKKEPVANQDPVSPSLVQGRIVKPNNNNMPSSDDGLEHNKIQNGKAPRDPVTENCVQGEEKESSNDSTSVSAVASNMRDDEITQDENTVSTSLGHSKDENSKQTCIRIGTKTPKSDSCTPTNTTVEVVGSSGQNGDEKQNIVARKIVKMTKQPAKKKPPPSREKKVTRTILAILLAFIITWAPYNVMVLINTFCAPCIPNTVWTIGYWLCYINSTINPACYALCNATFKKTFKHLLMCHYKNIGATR
Description: as §1, §2, §3

Structure (SMILES): Cc1ccccc1-c1cc(N2CCN(C)CC2)ncc1C(=O)N(C)Cc1cc(C(F)(F)F)cc(C(F)(F)F)c1 [EUC-001, N-(3,5-Bis-trifluoromethyl-benzyl)-N-methyl-6-(4-methyl-piperazine-1-yl)-4-o-tolyl-nicotinamide]
- Ki [1]: 17 µM
- IC50 (M) [2]: Not calculable
- IC50 [3]: 30 µM
